IC50 data for 24 compounds are collected here from patent US20230339970A1, “CASEIN KINASE 1 DELTA MODULATORS” (priority 2020, published 2023).

For orientation: IC50 means the concentration that inhibits the measured activity by half.

One assay deals with T1, human CSNK1D (Homo sapiens, UniProt P48730).
T1 construct: expressed in transfected cells
As to the kind of experiment: Whole Cell nBRET CSNK1D Binding Assay. The following applies: living CHO cells stably expressing human CSNK1D tagged with nanoluciferase; NanoBret tracer 130 nM; 2 hours at 37 C.

The target of assay [1] is T2, human recombinant GST cleaved CSNK1D (Homo sapiens, UniProt P48730).
T2 construct: GST (cleaved yes); purchased University of Dundee clone DU 19064
As to the kind of experiment: Purified Enzyme Assay (ADP-Glo CSNK1D Kinase Assay). Format: biochemical. As to conditions: 2 nM CSNK1D; peptide substrate 150 μM; ATP 20 μM; 45 minutes at room temperature. The essentials: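 Percent activity derived from ADP-Glo quantification of ADP produced. Reactions: compound dose-response with human recombinant GST-cleaved CSNK1D, ATP and substrate peptide PLSRTL-pS-VASLPGL, incubated 45 min at room temperature.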
A general note: In ADP-Glo the light output rises with the ADP produced.

Bounds are passed on as bounds.

T1 sequence (P48730 whole entry): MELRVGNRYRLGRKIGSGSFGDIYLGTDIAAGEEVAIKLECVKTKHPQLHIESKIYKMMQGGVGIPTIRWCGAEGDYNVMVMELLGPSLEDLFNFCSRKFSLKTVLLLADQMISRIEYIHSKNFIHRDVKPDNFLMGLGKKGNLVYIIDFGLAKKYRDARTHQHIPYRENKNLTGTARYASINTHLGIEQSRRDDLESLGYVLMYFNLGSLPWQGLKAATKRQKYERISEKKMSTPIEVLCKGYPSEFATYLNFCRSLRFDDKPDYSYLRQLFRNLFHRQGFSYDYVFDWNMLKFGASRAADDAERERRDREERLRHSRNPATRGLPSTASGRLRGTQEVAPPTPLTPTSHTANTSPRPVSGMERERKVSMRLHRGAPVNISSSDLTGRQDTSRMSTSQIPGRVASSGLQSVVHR
T2 sequence (P48730 whole entry): as above

For the compound `Cc1cc(-c2c(-c3ccc(F)cn3)nn3c2O[C@H](C)C[C@H]3C)c2cn[nH]c2n1` (single isomer, unassigned) [Example 208, (5*R,7*R)-2-(5-Fluoro-2-pyridyl)-5,7-dimethyl-3-(6-methyl-1H-pyrazolo[3,4-b]pyridin-4-yl)-6,7-dihydro-5H-pyrazolo[5,1-b][1,3]oxazine], the 50% inhibitory concentration (IC50) at human CSNK1D was 821 nM; in assay [1] it was 26 nM.

Consider `COC[C@@]1(F)CCc2c(-c3cc(C)nc4[nH]ncc34)c(-c3ccc(F)cn3)nn2C1` (single isomer, unassigned) [Example 54, (*R)-4-(6-Fluoro-2-(5-fluoropyridin-2-yl)-6-(methoxymethyl)-4,5,6,7-tetrahydropyrazolo[1,5-a]pyridin-3-yl)-6-methyl-1H-pyrazolo[3,4-b]pyridine], for which the concentration for half-maximal inhibition (IC50) on human CSNK1D stood at 3740 nM; in assay [1] it was 84 nM.

Turning to `CC1(CF)CCc2c(-c3c(F)cnc4[nH]ncc34)c(-c3ccc(F)cn3)nn2C1` (single isomer, unassigned) [Example 293, (*S)-5-Fluoro-4-[6-(fluoromethyl)-2-(5-fluoro-2-pyridyl)-6-methyl-5,7-dihydro-4H-pyrazolo[1,5-a]pyridin-3-yl]-1H-pyrazolo[3,4-b]pyridine], the half-inhibitory concentration (IC50) at human CSNK1D came out at 18 nM; in assay [1], 2 nM.

For the compound `CC1COCc2c(-c3ccnc(CO)c3)c(-c3ccc(F)cc3)nn21` (stereo not drawn) [Example 90, (4-(2-(4-Fluorophenyl)-7-methyl-6,7-dihydro-4H-pyrazolo[5,1-c][1,4]oxazin-3-yl)pyridin-2-yl)methanol], the IC50 amounted to 352 nM on human CSNK1D and 16 nM in assay [1].

Take `Cc1cc(-c2c(-c3ccc(F)cn3)nn3c2COC(C)(C)C3)c2cn[nH]c2n1` [Example 154, 2-(5-Fluoro-2-pyridyl)-6,6-dimethyl-3-(6-methyl-1H-pyrazolo[3,4-b]pyridin-4-yl)-4,7-dihydropyrazolo[5,1-c][1,4]oxazine]: the results for the IC50 (at human CSNK1D; in assay [1]) were 23 nM and 2 nM, respectively.

As for `[2H]C([2H])([2H])[C@@]1(C(F)(F)F)Cn2nc(-c3ccc(F)cn3)c(-c3ccnc4[nH]nc(C)c34)c2CO1` (single isomer, unassigned) [Example 426, (*S)-2-(5-Fluoropyridin-2-yl)-6-(methyl-d3)-3-(3-methyl-1H-pyrazolo[3,4-b]pyridin-4-yl)-6-(trifluoromethyl)-6,7-dihydro-4H-pyrazolo[5,1-c][1,4]oxazine], the IC50 was determined as 87 nM at human CSNK1D and 17 nM in assay [1].

As to `Cc1n[nH]c2ncc(F)c(-c3c(-c4ccc(F)cn4)nn4c3CC[C@H]3[C@@H]4C3(F)F)c12` (single isomer, unassigned) [Example 359, (5a*S,6a*R)-6,6-Difluoro-3-(5-fluoro-3-methyl-1H-pyrazolo[3,4-b]pyridin-4-yl)-2-(5-fluoropyridin-2-yl)-5,5a,6,6a-tetrahydro-4H-cyclopropa[e]pyrazolo[1,5-a]pyridine], the IC50 is above 10000 nM at human CSNK1D and 1670 nM in assay [1].

As for `O=C(Nc1cc(-c2c(-c3ccc(F)cn3)nn3c2OCC2(CC2)C3)ccn1)C1CC1` [Example 456, N-(4-(2′-(5-Fluoropyridin-2-yl)-5′H,7′H-spiro[cyclopropane-1,6′-pyrazolo[5,1-b][1,3]oxazin]-3′-yl)pyridin-2-yl)cyclopropanecarboxamide], the IC50 at human CSNK1D was 7 nM; in assay [1], 1 nM.

For `Fc1ccc(-c2nn3c(c2-c2ccnc4[nH]ncc24)CCC2(C3)CC2(F)F)nc1` (single isomer, unassigned) [Example 328, (*R)-2,2-Difluoro-2′-(5-fluoropyridin-2-yl)-3′-(1H-pyrazolo[3,4-b]pyridin-4-yl)-4′,5′-dihydro-7′H-spiro[cyclopropane-1,6′-pyrazolo[1,5-a]pyridine]], the 50% inhibitory concentration (IC50) at human CSNK1D stood at 8 nM; in assay [1], 1 nM.

Take `C[C@@]1(C(F)(F)F)Cn2nc(-c3ccc(F)cn3)c(-c3ccnc4[nH]ncc34)c2CO1` (single isomer, unassigned) [Example 177, (*S)-2-(5-Fluoropyridin-2-yl)-6-methyl-3-(1H-pyrazolo[3,4-b]pyridin-4-yl)-6-(trifluoromethyl)-6,7-dihydro-4H-pyrazolo[5,1-c][1,4]oxazine]: the half-inhibitory concentration (IC50) on human CSNK1D came out at 44 nM; in assay [1] it was 3 nM.

As for `Fc1ccc(-c2nn3c(c2-c2ccnc4[nH]ncc24)CCC2(C3)CC2(F)F)cc1` (single isomer, unassigned) [Example 326, (*S)-2,2-Difluoro-2′-(4-fluorophenyl)-3′-1H-pyrazolo[3,4-b]pyridin-4-yl)-4′,5′-dihydro-7′H-spiro[cyclopropane-1,6′-pyrazolo[1,5-a]pyridine]], the half-inhibitory concentration (IC50) on human CSNK1D was determined as 23 nM; in assay [1], 6 nM.

For the compound `C[C@]1(C(F)(F)F)Cn2nc(-c3ccc(F)cn3)c(-c3ccn4nccc4c3)c2CO1` (single isomer, unassigned) [Example 414, (*R)-2-(5-Fluoropyridin-2-yl)-6-methyl-3-(pyrazolo[1,5-a]pyridin-5-yl)-6-(trifluoromethyl)-6,7-dihydro-4H-pyrazolo[5,1-c][1,4]oxazine], the IC50 at human CSNK1D came to 330 nM; in assay [1] it was 8 nM.

In the case of `C[C@H]1OCCn2nc(-c3ccc(F)cn3)c(-c3ccnc4[nH]ccc34)c21` [Example 80, (R)-2-(5-Fluoropyridin-2-yl)-4-methyl-3-(1H-pyrrolo[2,3-b]pyridin-4-yl)-6,7-dihydro-4H-pyrazolo[5,1-c][1,4]oxazine], the concentration for half-maximal inhibition (IC50) was found to be 3060 nM on human CSNK1D and 18 nM in assay [1].

As for `Cc1cc(-c2c(-c3ccc(F)cn3)nn3c2CCC3)c2cn[nH]c2n1` [Example 8, 4-[2-(5-Fluoro-2-pyridyl)-5,6-dihydro-4H-pyrrolo[1,2-b]pyrazol-3-yl]-6-methyl-1H-pyrazolo[3,4-b]pyridine], the IC50 on human CSNK1D turned out to be 87 nM; in assay [1], 4 nM.

As to `Fc1ccc(-c2nn3c(c2-c2ccnc4[nH]ncc24)CC2(CC2)C3)cc1` [Example 247, 2-(4-Fluorophenyl)-3-(1H-pyrazolo[3,4-b]pyridin-4-yl)spiro[4,6-dihydropyrrolo[1,2-b]pyrazole-5,1′-cyclopropane]], the IC50 came to 13 nM at human CSNK1D and 2 nM in assay [1].

In the case of `CC(=O)Nc1cc(-c2c(-c3ccc(F)cn3)nn3c2CC[C@H]2[C@@H]3C2(F)F)ccn1` (stereo in doubt) [Example 351, N-(4-((5a*S,6a*R)-6,6-Difluoro-2-(5-fluoropyridin-2-yl)-5,5a,6,6a-tetrahydro-4H-cyclopropa[e]pyrazolo[1,5-a]pyridin-3-yl)pyridin-2-yl)acetamide], the figures for the IC50 (on human CSNK1D; in assay [1]) were 20 nM and 2 nM, respectively.

For the compound `[2H]C([2H])([2H])C1(C([2H])([2H])[2H])Cn2nc(-c3ccc(F)cn3)c(-c3ccnc(NC(=O)CC)c3)c2CO1` [Example 395, N-(4-(2-(5-Fluoropyridin-2-yl)-6,6-bis(methyl-d3)-6,7-dihydro-4H-pyrazolo[5,1-c][1,4]oxazin-3-yl)pyridin-2-yl)propionamide], the IC50 at human CSNK1D was determined as 21 nM; in assay [1], 2 nM.

As to `Fc1ccc(-c2nn3c(c2-c2ccnc4[nH]ncc24)C2CCC3CC2)nc1` [Example 65, 2-(5-Fluoropyridin-2-yl)-3-(1H-pyrazolo[3,4-b]pyridin-4-yl)-4,5,6,7-tetrahydro-4,7-ethanopyrazolo[1,5-a]pyridine], the values for the half-maximal inhibitory concentration (IC50) (on human CSNK1D; in assay [1]) were 55 nM and 3 nM, respectively.

Take `Cc1cn2nccc2cc1-c1c(-c2ccc(F)cn2)nn2c1OCC(C)(C)C2` [Example 451, 2-(5-Fluoro-2-pyridyl)-6,6-dimethyl-3-(6-methylpyrazolo[1,5-a]pyridin-5-yl)-5,7-dihydropyrazolo[5,1-b][1,3]oxazine]: the IC50 at human CSNK1D is 5760 nM; in assay [1], 132 nM.

On to `Cc1cc(-c2c(-c3ccc(F)cc3)nn3c2CC2(CC2)C3)c2cn[nH]c2n1` [Example 248, 2-(4-Fluorophenyl)-3-(6-methyl-1H-pyrazolo[3,4-b]pyridin-4-yl)spiro[4,6-dihydropyrrolo[1,2-b]pyrazole-5,1′-cyclopropane]], for which the IC50 at human CSNK1D stood at 6 nM; in assay [1], 2 nM.

With `Cc1n[nH]c2nccc(-c3c(-c4ccc(F)cc4)nn4c3COC(C(F)(F)F)C4)c12` (single isomer, unassigned) [Example 373, (*R)-2-(4-Fluorophenyl)-3-(3-methyl-1H-pyrazolo[3,4-b]pyridin-4-yl)-6-(trifluoromethyl)-6,7-dihydro-4H-pyrazolo[5,1-c][1,4]oxazine], the figures for the IC50 (at human CSNK1D; in assay [1]) were above 10000 nM and 306 nM, respectively.

For `[2H]C([2H])([2H])[C@@]1(C#N)CCc2c(-c3ccnc4[nH]ncc34)c(-c3ccc(F)cn3)nn2C1` (single isomer, unassigned) [Example 324, (*R)-2-(S-Fluoropyridin-2-yl)-6-(methyl-d3)-3-(1H-pyrazolo[3,4-b]pyridin-4-yl)-4,5,6,7-tetrahydropyrazolo[1,5-a]pyridine-6-carbonitrile], the values for the IC50 (at human CSNK1D; in assay [1]) were 112 nM and 37 nM, respectively.

Turning to `C[C@@H]1C[C@H](C)n2nc(-c3ccc(F)cn3)c(-c3ccnc4[nH]ncc34)c2O1` (single isomer, unassigned) [Example 203, (5*R,7*S)-2-(5-Fluoro-2-pyridyl)-5,7-dimethyl-3-(1H-pyrazolo[3,4-b]pyridin-4-yl)-6,7-dihydro-5H-pyrazolo[5,1-b][1,3]oxazine], the figures for the IC50 (at human CSNK1D; in assay [1]) were 2890 nM and 34 nM, respectively.

As for `Cc1cc(-c2c(-c3cscn3)nn3c2COC(C)(C)C3)c2cn[nH]c2n1` [Example 125, 6,6-Dimethyl-3-(6-methyl-1H-pyrazolo[3,4-b]pyridin-4-yl)-2-(thiazol-4-yl)-6,7-dihydro-4H-pyrazolo[5,1-c][1,4]oxazine], the figures for the IC50 (at human CSNK1D; in assay [1]) were 270 nM and 12 nM, respectively.
